Earlier results on two compounds are cited in US20040047946A1, “Methods and formulations useful for lowering the cholesterol content of egg yolk” (Kapac, LLC, priority 2002, published 2004).

The subject of one series is hens. The following applies: hens fed 0.0265% lovastatin for 35 days.
In a further series the test system is chickens. The following applies: chickens fed 2% and 4% sitosterol emulsified with carboxymethyl cellulose.

For `CC[C@H](C)C(=O)O[C@H]1C[C@@H](C)C=C2C=C[C@H](C)[C@H](CC[C@@H]3C[C@@H](O)CC(=O)O3)[C@H]21` [lovastatin], in the series with hens, the “less cholesterol in eggs than those from hens that received only a corn-soybean diet” value is 15%. Consider `CC[C@H](CC[C@@H](C)[C@H]1CC[C@H]2[C@@H]3CC=C4C[C@@H](O)CC[C@]4(C)[C@H]3CC[C@]12C)C(C)C` [sitosterol], for which, in the series on chickens, the “cholesterol and total sterol content of the egg” value is recorded as “significant reduction”; the “level of egg yolk sitosterol” value is “increased”.
